# Values quoted from earlier work, collected in EP3728136B1 (Easymining Sweden AB, priority 2017, dated 2019).
# Tested on: biogas-producing bacteria
# Conditions: concentration of free ammonia increased to 620 mg/l; Siles et al., 2010
smiles,measurement,value
N [ammonia],gradual decrease of biogas production,21%
